Measurements from patent US9550792B2, “Polycyclic substituted pyrazole kinase activity inhibitors and use thereof” (priority 2013, dated 2017).
Values joined by “and” are separate entries in the source; they are usually repeats but may differ in a detail not shown here. Equal values may be shown once. Read-outs that look alike come from different tables or passages of the source.

Key:
[1] = Pharmacokinetics after single oral dose in rats; format: in vivo, Wistar rat
Description: (§1) 300 μL blood collected from the rat was mixed with 30 μL methanol and 2 mL ethyl acetate. The samples were vortexed for 3 min and centrifuged at 4000 rpm for 15 min. The supernatant was introduced into another centrifugal tube. The lower layer was repeatedly extracted and then the supernatants were combined and dried with nitrogen gas. After redissolution with 150 μL methanol, they were filtered by 0.22 μm membrane and then subjected to analysis with a injection volume of 20 μL.
An amount of compound was taken accurately to prepare CMC-Na aqueous solution containing 3 mg/mL of drug. 12 healthy male Wister rats were randomly assigned to two groups, each group including 6 rats. The first group was administrated orally compound 1. The second group was administrated orally compound 2. The doses were both 30 mg/kg (corresponding to 2 mL for each rat). The rats were fasting for 12 h before administration and free access to water. 0.6 mL blood samples were collected at 0.5, 1, 1.5, 2, 2.5, 3, 5, 8, 12 and 24 h after drug administration from the venous sinuses and added into EP tubes which were rinsed with heparin sodium previously. The samples were centrifuged at 4,000 r/min for 15 min and the upper plasma were obtained. 300 μL plasma was subjected to analysis and the chromatogram and peak area were recorded. The plasma concentrations of compounds 1 and 2 were calculated to give average concentration-time curve.
DAS 2.0 program was used to analyze plasma concentration vs. time data after s single oral dose (Table 6, 7). Fitting and the AIC methods were used to determine the model. The analysis was based on the principle that the larger fitting and the smaller AIC, the better model. The oral administration was consistent with the two-compartment model. The statistical distance parameter is used to compare the 2 compounds for the pharmacokinetic parameters.

[2] = Plasma stability; format: in vitro ADME; settings: rat plasma
Description: as §1
[…] The samples were prepared according to the method of 3.1. 20 μL were introduced into the HPLC system and the peak area is recorded for analysis to determine the stability of compound 1 and 2 in plasma.

[3] = Measurement of lipid-water partition coefficient (Log P); format: physicochemical; settings: n-octanol/distilled water, 25° C.
Description: n-octanol and distilled water were allowed to saturate each other for 24 h. An amount of the sample was weighed accurately into a 50 mL volumetric flask and metered with n-octanol that was saturated with water (the sample was dissolved completely). A 10 mL solution of the sample in n-octanol was placed in a 50 mL triangular flask, to which was added 10 mL distilled water which was saturated with n-octanol. The mixture was equilibrated (125 rpm, 72 h) at 25° C. with a constant temperature vibrator. The lipid-water partition coefficient was calculated by the concentrations of the drug in the n-octanol stock solution before the experiment and in the n-octanol layer after experiment.

[4] = male, Wistar, plasma, rat, oral 30 mg/kg

O=C(Nc1ccc(CN2CCOCC2)cc1)c1n[nH]cc1Nc1ncnc2sccc12 [Compound I-2, 4-(4-thieno[2,3-d]pyrimidinylamino)-N-(4-((4-morpholinyl)methyl)phenyl)-1H-3-pyrazolecarboxamide]
Cmax [1, 4]: 265 ± 52.9 ng/mL
Tmax [1, 4]: 14 ± 5.29 h
half-life [1, 4]: 14.7 ± 4.23 h
AUC(0-t) ([1]; male, Wistar, plasma, rat, oral 30 mg/kg, read-out: AUC 0-24): 4350 ± 1300 ng·h/mL
MRT last ([1]; male, Wistar, plasma, rat, oral 30 mg/kg, read-out: MRT 0-24): 13.8 ± 1.29 h
concentration at 0.5 h ([1]; male, Wistar, rat, plasma, po, 30 mg/kg, mean of rats, oral 30 mg/kg, time 0.5 h, read-out: Plasma concentration, mean): 50.8 ng/mL
concentration at 1 h ([1]; male, Wistar, rat, plasma, po, 30 mg/kg, mean of rats, oral 30 mg/kg, time 1 h, read-out: Plasma concentration, mean): 85.3 ng/mL
concentration at 2 h ([1]; male, Wistar, rat, plasma, po, 30 mg/kg, mean of rats, oral 30 mg/kg, time 2 h, read-out: Plasma concentration, mean): 53.2 ng/mL
concentration at 2.5 h ([1]; male, Wistar, rat, plasma, po, 30 mg/kg, mean of rats, oral 30 mg/kg, time 2.5 h, read-out: Plasma concentration, mean): 57.6 ng/mL
concentration at 3 h ([1]; male, Wistar, rat, plasma, po, 30 mg/kg, mean of rats, oral 30 mg/kg, time 3 h): 64.5 ng/mL
concentration at 5 h ([1]; male, Wistar, rat, plasma, po, 30 mg/kg, mean of rats, oral 30 mg/kg, time 5 h): 122 ng/mL
concentration at 8 h ([1]; male, Wistar, rat, plasma, po, 30 mg/kg, mean of rats, oral 30 mg/kg, time 8 h, read-out: Plasma concentration, mean): 162 ng/mL
concentration at 12 h ([1]; male, Wistar, rat, plasma, po, 30 mg/kg, mean of rats, oral 30 mg/kg, time 12 h, read-out: Plasma concentration, mean): 264 ng/mL
concentration at 24 h ([1]; male, Wistar, rat, plasma, po, 30 mg/kg, mean of rats, oral 30 mg/kg, time 24 h): 157 ng/mL
concentration at 2.5 h ([1]; male, Wistar, rat, plasma, po, 30 mg/kg, rat No. 1-6, oral 30 mg/kg, time 2.5 h, read-out: Plasma concentration, individual rats): 72.9 ng/mL
concentration at 12 h ([1]; male, Wistar, rat, plasma, po, 30 mg/kg, rat No. 1-6, oral 30 mg/kg, time 12 h, read-out: Plasma concentration, individual rats): 253 ng/mL
Plasma concentration, individual rats ([1]; rat No. 1-6, oral 30 mg/kg, time 0.5 h, 30 mg/kg): 29.26 ng*ml/1 and 123.49 ng*ml/1 and 25.98 ng*ml/1 and 24.36 ng*ml/1
Plasma concentration, individual rats ([1]; rat No. 1-6, oral 30 mg/kg, time 1 h, 30 mg/kg): 208.71 ng*ml/1 and 28.68 ng*ml/1 and 18.66 ng*ml/1
Plasma concentration, individual rats ([1]; rat No. 1-6, oral 30 mg/kg, time 2 h, 30 mg/kg): 53.04 ng*ml/1 and 88.44 ng*ml/1 and 37.16 ng*ml/1 and 47.57 ng*ml/1 and 47.03 ng*ml/1 and 46.08 ng*ml/1
Plasma concentration, individual rats ([1]; rat No. 1-6, oral 30 mg/kg, time 2.5 h, 30 mg/kg): 74.79 ng*ml/1 and 57.6 ng*ml/1 and 39.48 ng*ml/1 and 49.89 ng*ml/1 and 51.04 ng*ml/1
Plasma concentration, individual rats ([1]; rat No. 1-6, oral 30 mg/kg, time 3 h, 30 mg/kg): 81.11 ng*ml/1 and 87.89 ng*ml/1 and 57.21 ng*ml/1 and 41.79 ng*ml/1 and 65.08 ng*ml/1 and 53.93 ng*ml/1
Plasma concentration, individual rats ([1]; rat No. 1-6, oral 30 mg/kg, time 5 h, 30 mg/kg): 124.06 ng*ml/1 and 272.93 ng*ml/1 and 86.12 ng*ml/1 and 78.03 ng*ml/1 and 94.32 ng*ml/1 and 76.64 ng*ml/1
Plasma concentration, individual rats ([1]; rat No. 1-6, oral 30 mg/kg, time 8 h, 30 mg/kg): 196.61 ng*ml/1 and 263.95 ng*ml/1 and 119.66 ng*ml/1 and 82.66 ng*ml/1 and 121.59 ng*ml/1 and 186.27 ng*ml/1
Plasma concentration, individual rats ([1]; rat No. 1-6, oral 30 mg/kg, time 12 h, 30 mg/kg): 345.56 ng*ml/1 and 229.22 ng*ml/1 and 256.32 ng*ml/1 and 213.94 ng*ml/1 and 286.97 ng*ml/1
Plasma concentration, individual rats ([1]; rat No. 1-6, oral 30 mg/kg, time 24 h, 30 mg/kg): 198.92 ng*ml/1 and 97.83 ng*ml/1 and 209.56 ng*ml/1 and 221.75 ng*ml/1 and 74.79 ng*ml/1 and 138.91 ng*ml/1
pharmacokinetic parameters (in words) ([1]; rat, oral 30 mg/kg): acceptable
plasma stability in 24 h (in words) ([2]; 24 h): good plasma stability
Plasma stability (HPLC reading) ([2]; Time 0 h): 2.36
Plasma stability (HPLC reading) ([2]; Time 1 h): 2.34
Plasma stability (HPLC reading) ([2]; Time 2 h): 2.29
Plasma stability (HPLC reading) ([2]; Time 3 h): 2.21
Plasma stability (HPLC reading) ([2]; Time 5 h): 2.16
Plasma stability (HPLC reading) ([2]; Time 8 h): 2.11
Plasma stability (HPLC reading) ([2]; Time 12 h): 1.97
Plasma stability (HPLC reading) ([2]; Time 24 h): 1.85
logP at 72 h [3]: 1.28
